# Measurements reported in patent publication US7671091B2, “Penis enlargement” (priority 2004, dated 2010).
# How the values were obtained:
# human penis [1] = assay: Permanent increase in erect penis length and girth after repeated intracavernosal vasodilator treatment of male patients; assay type: in vivo
# Description: The term “penis length” refers to the maximum length of the penis, as measured along the dorsal surface of the penis from the symphysis pubis to the tip or end of the glans penis when the glans penis is pulled manually and put under tension. Preferably, the measurement is taken when the penis is fully erect.
# The term “penis girth” refers to the largest measured value obtained for circumference of the erect penis, as measured in the midshaft region (middle third). Preferably, the measurement is taken when the penis is fully erect.
# An engorgement is deemed “cumulative prolonged” when an erectile response lasts for at least 3 hours over a 24 hours period.
# (§1) Therefore, a “cumulative prolonged engorgement” would be an erectile response that is over 40% for a period of at least 3 hours in a 24 hours period.
# A patient was treated with intracavernosal injections of a vasodilator, prostaglandin E1, on a regular basis (approximately four to five times per week) over an 18 month treatment period. […] The quantity of medication was adjusted from time to time in accordance with the patient's response, which was monitored at least weekly. […]
# A patient was treated with intracavernosal injections of a quadruple mix of the vasodilators prostaglandin E1, Atropine, Chlorpromazine and Papavarine on a regular basis (approximately two to four times per week) over a 4-month treatment period. […] The quantity of medication was adjusted in accordance with the patient's response. The potentiator dihydrotestosterone 5% ointment was administered […] starting two weeks before starting the IC injections of the vasodilators Atropine, Chlorpromazine and Papavarine and prostaglandin.
# human penis [2] = conditions: in vivo
# Protocol: as §1
# (§2) The quantity of medication was adjusted in accordance with the patient's response.
# as §2
# [3] = Example 1: patient, 18-month treatment
smiles,measurement,setting,value
Cc1ccc(N(CC2=NCCN2)c2cccc(O)c2)cc1 [phentolamine],increase in erect penis length,"human penis [1]; Example 6: patient, 4 months, frequently with oral Viagra, dihydrotestosterone gel",~25%
same,erect penis length after treatment,"human penis [1]; Example 6: patient, intracavernosal 2-4 times per week, 4 months, frequently combined with oral Viagra, potentiator dihydrotestosterone gel, from 5.2 inches",6.5 inches
CCCCC[C@H](O)/C=C/[C@H]1[C@H](O)CC(=O)[C@@H]1CCCCCCC(=O)O [prostaglandin E1],increase in erect penis girth,human penis [1]; [3],~56%
same,increase in erect penis length,human penis [1]; [3],~48%
same,fully erect penis girth after treatment,"human penis [1]; Example 1: patient, 18-month treatment, from 3.7 inches",5.8 inches
same,fully erect penis length after treatment,"human penis [1]; Example 1: patient, intracavernosal, approx. 4-5 times per week, 18-month treatment, from 5.8 inches",8.6 inches
same,increase in erect penis length,"human penis [1]; Example 10: patient, 3 months, with daily subcutaneous dihydrotestosterone",~13%
same,erect penis length after treatment,"human penis [1]; Example 10: patient, two separate IC injections per treatment day, 2-5 times per week, 3 months, dihydrotestosterone 15 mg subcutaneously into the penis daily, from 6.3 inches",7.1 inches
same,tolerability (sensitivity),human penis [2],aching and pain at higher doses
